Laboratory results published in patent publication US7271148B2, “Inhibition of cellular proteases” (The Board of Regents of The University of Texas System, priority 1999, dated 2007).

Legend:
μ-calpain = biological target: T1, μ-calpain (Homo sapiens, UniProt P07384); test: Cleavage of purified recombinant p21cip1 by purified μ-calpain; format: biochemical; details: E64d 100 μM; 0.4 μg p21^cip1, 0.004 units μ-calpain, 30 min at 30° C.; Western blot (FIG. 19)
T1 construct: purchased Calbiochem (San Diego, Calif.)
T1 sequence (P07384 1-714): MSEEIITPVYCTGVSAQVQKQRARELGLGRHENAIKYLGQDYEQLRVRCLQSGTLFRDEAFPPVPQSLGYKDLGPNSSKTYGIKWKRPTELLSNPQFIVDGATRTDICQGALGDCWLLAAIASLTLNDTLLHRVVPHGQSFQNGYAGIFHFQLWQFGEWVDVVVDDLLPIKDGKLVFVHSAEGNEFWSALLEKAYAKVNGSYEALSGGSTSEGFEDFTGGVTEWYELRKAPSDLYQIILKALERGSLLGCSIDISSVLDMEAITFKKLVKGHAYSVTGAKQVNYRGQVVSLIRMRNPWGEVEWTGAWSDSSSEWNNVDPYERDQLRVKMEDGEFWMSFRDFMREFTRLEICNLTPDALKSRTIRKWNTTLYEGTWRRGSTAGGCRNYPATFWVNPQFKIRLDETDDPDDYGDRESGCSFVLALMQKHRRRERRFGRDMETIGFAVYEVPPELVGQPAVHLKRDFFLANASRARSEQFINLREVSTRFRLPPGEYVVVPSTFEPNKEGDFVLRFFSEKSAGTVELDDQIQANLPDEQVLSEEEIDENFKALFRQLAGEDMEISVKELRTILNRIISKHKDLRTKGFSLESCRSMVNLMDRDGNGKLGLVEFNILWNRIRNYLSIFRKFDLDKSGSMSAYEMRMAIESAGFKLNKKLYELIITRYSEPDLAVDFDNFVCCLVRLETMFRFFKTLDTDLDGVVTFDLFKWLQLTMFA
T1 sequence (P04632 1-268 partner): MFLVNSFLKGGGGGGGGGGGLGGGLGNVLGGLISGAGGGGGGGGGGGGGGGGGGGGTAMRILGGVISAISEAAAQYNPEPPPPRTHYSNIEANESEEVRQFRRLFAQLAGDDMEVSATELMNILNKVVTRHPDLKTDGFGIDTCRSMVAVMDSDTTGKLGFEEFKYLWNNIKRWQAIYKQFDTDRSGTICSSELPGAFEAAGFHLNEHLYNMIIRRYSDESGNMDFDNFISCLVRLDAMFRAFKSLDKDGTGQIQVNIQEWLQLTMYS
Protocol: (§1) Cleavage of p21^cip1 by calpain. Recombinant p21^cip1 was provided by Harper (37) or Ke (47), and was also prepared using the expression plasmid pET-p21 (37) according to the published methods (30). To evaluate the effect of calpains on p21^cip1, 400 ng of purified recombinant p21^cip1 was incubated with 0.004 units of either pure μ-calpain or m-calpain at 30° C. for 30 minutes in 40 μl of cleavage buffer, containing 25 mM Tris-HCl (pH 7.5), 100 mM NaCl, 3 mM DTT and 5 mM CaCl2 (44). EDTA was added to 10 mM to stop the reaction. An equal volume of 2×SDS gel-loading buffer (18) was mixed with the digestion mixture and the mixture was immediately boiled for 5 min. The digestion products were evaluated by Western blot analysis or SDS-PAGE and coomassie brilliant blue staining.
FIGS. 19 and 20. Cleavage of purified recombinant p21^cip1 by purified ubiquitous calpains. 19. p21^cip1 (0.4 μg) was incubated with μ-calpain (0.004 units) for 30 min at 30° C. in the presence or absence of E64d (100 μM) and the resulting products were analyzed by Western blot analysis, as described in Materials and Methods 20. p21^cip1 (4 μg) or casein (3 μg) was incubated with 0.04 units of μ-calpain or m-calpain for 30 min at 30° C. and the products of the digestion were examined by SDS-PAGE and coomassie brilliant blue staining. […]

m-calpain = biological target: T2, m-calpain (Homo sapiens, UniProt P17655); test: Cleavage of purified recombinant p21cip1 by purified m-calpain; format: biochemical; details: purified recombinant p21^cip1 incubated with m-calpain
T2 construct: purchased Sigma (St. Louis, Mo.)
T2 sequence (P17655 1-700): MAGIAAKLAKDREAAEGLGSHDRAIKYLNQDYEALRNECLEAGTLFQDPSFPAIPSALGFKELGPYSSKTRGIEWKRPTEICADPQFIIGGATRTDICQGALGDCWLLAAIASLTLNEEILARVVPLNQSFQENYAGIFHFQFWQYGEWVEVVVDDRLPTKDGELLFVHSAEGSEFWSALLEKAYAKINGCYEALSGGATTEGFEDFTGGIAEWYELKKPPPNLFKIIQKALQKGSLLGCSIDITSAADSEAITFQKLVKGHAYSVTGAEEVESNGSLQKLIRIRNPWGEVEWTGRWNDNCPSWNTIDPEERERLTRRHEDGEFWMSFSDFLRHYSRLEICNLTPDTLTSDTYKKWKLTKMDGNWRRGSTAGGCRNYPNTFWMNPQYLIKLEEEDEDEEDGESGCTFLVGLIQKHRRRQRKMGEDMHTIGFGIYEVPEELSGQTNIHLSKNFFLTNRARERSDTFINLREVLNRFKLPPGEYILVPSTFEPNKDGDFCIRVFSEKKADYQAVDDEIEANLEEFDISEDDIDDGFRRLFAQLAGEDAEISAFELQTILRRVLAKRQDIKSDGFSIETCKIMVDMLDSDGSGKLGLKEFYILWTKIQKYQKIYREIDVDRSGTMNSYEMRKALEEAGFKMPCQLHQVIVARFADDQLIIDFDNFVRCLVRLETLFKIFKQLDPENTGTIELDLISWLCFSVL
T2 sequence (P04632 1-268 partner): T1 sequence (P04632 1-268 partner)
Protocol: as §1

proteolysis of p21^cip1 by μ-calpain (in words) (μ-calpain): inhibited the proteolysis | proteolysis of p21^cip1 by m-calpain (in words) (m-calpain): inhibited the proteolysis
SMILES: CC(C)C[C@H](NC(=O)[C@H]1O[C@@H]1C(=O)O)C(=O)NCCCCN=C(N)N (relative stereo) [E64d, trans-epoxysuccinyl-L-leucylamido (4-guanidino)-butane]
